Measurements reported in patent US10344049B2, “Substituted steroids for the treatment of cancer” (AQUAVAN TECHNOLOGY CO., LTD., priority 2017, dated 2019).
Like-named read-outs stand apart in the source and are kept apart here.

Tests used:
Format in all cases: cell-based
[1] = tested on: African green monkey kidney cells Vero; test: Cell viability test (Resazurin), Vero cells
Protocol: (§1) Cell viability was determined with Resazurin (at a final concentration of 25 μg/mL).

[2] = tested on: human breast cancer cells MDA-MB-231; test: Cell viability test (Resazurin), MDA-MB-231 cells
Protocol: as §1

[3] = tested on: human Glioblastoma cells U87-MG; test: Cell viability test (Resazurin), U87-MG cells
Protocol: as §1

[4] = tested on: human breast cancer cells MDA-MB-468; test: Cell viability test (Resazurin), MDA-MB-468 cells
Protocol: as §1

[5] = tested on: human liver cancer cells Mahlavu; test: Cell viability test (Resazurin), Mahlavu cells
Protocol: as §1

[6] = tested on: human lung cancer cells A549; test: Cell viability test (Resazurin), A549 cells
Protocol: as §1

[7] = tested on: human colorectal cancer cells SW-480; test: Cell viability test (Resazurin), SW480 cells; parameters: evaluation of ability to inhibit cell growth activity (IC50): scale not given here
Protocol: as §1

[8] = tested on: human leukemia cells U937; test: Cell viability test (Resazurin), U937 cells
Protocol: as §1

[9] = 48 hours, 0.1% FCS, Resazurin, read-out: inhibitory concentrations of cell growth activity IC50
[10] = grade of the IC50 of Table 2, read-out: evaluation of ability to inhibit cell growth activity (IC50)
[11] = MDA-MB-231 cells, 48 hours, 0.1% FCS, Resazurin, read-out: inhibitory concentrations of cell growth activity IC50
[12] = MDA-MB-231 cells, grade of the IC50 of Table 2, read-out: evaluation of ability to inhibit cell growth activity (IC50)
[13] = MDA-MB-468 cells, 48 hours, 0.1% FCS, Resazurin, read-out: inhibitory concentrations of cell growth activity IC50
[14] = MDA-MB-468 cells, grade of the IC50 of Table 2, read-out: evaluation of ability to inhibit cell growth activity (IC50)
[15] = A549 cells, 48 hours, 0.1% FCS, Resazurin, read-out: inhibitory concentrations of cell growth activity IC50
[16] = A549 cells, grade of the IC50 of Table 2, read-out: evaluation of ability to inhibit cell growth activity (IC50)
[17] = SW480 cells, 48 hours, 0.1% FCS, Resazurin, read-out: inhibitory concentrations of cell growth activity IC50
[18] = SW480 cells, grade of the IC50 of Table 2, read-out: evaluation of ability to inhibit cell growth activity (IC50)
[19] = U937 cells, 48 hours, 0.1% FCS, Resazurin, read-out: inhibitory concentrations of cell growth activity IC50
[20] = U937 cells, grade of the IC50 of Table 2, read-out: evaluation of ability to inhibit cell growth activity (IC50)
[21] = Chlorocebus sabaeus, Vero, 48 h, 0.1% FCS, Resazurin, read-out: inhibitory concentrations of cell growth activity IC50
[22] = Chlorocebus sabaeus, Vero, grade of the IC50 of Table 2, read-out: evaluation of ability to inhibit cell growth activity (IC50)
[23] = Homo sapiens, MDA-MB-231, 48 h, MDA-MB-231 cells, 48 hours, 0.1% FCS, Resazurin, read-out: inhibitory concentrations of cell growth activity IC50
[24] = Homo sapiens, MDA-MB-231, MDA-MB-231 cells, grade of the IC50 of Table 2, read-out: evaluation of ability to inhibit cell growth activity (IC50)
[25] = Homo sapiens, U-87 MG, 48 h, 0.1% FCS, Resazurin, read-out: inhibitory concentrations of cell growth activity IC50
[26] = Homo sapiens, U-87 MG, grade of the IC50 of Table 2, read-out: evaluation of ability to inhibit cell growth activity (IC50)
[27] = Homo sapiens, MDA-MB-468, 48 h, MDA-MB-468 cells, 48 hours, 0.1% FCS, Resazurin, read-out: inhibitory concentrations of cell growth activity IC50
[28] = Homo sapiens, MDA-MB-468, MDA-MB-468 cells, grade of the IC50 of Table 2, read-out: evaluation of ability to inhibit cell growth activity (IC50)
[29] = Homo sapiens, Mahlavu, 48 h, 0.1% FCS, Resazurin, read-out: inhibitory concentrations of cell growth activity IC50
[30] = Homo sapiens, Mahlavu, grade of the IC50 of Table 2, read-out: evaluation of ability to inhibit cell growth activity (IC50)
[31] = Homo sapiens, A549, 48 h, A549 cells, 48 hours, 0.1% FCS, Resazurin, read-out: inhibitory concentrations of cell growth activity IC50
[32] = Homo sapiens, A549, A549 cells, grade of the IC50 of Table 2, read-out: evaluation of ability to inhibit cell growth activity (IC50)
[33] = Homo sapiens, SW480, 48 h, SW480 cells, 48 hours, 0.1% FCS, Resazurin, read-out: inhibitory concentrations of cell growth activity IC50
[34] = Homo sapiens, SW480, SW480 cells, grade of the IC50 of Table 2, read-out: evaluation of ability to inhibit cell growth activity (IC50)
[35] = Homo sapiens, U-937, 48 h, U937 cells, 48 hours, 0.1% FCS, Resazurin, read-out: inhibitory concentrations of cell growth activity IC50
[36] = Homo sapiens, U-937, U937 cells, grade of the IC50 of Table 2, read-out: evaluation of ability to inhibit cell growth activity (IC50)
[37] = MDA-MB-468 cells, grade of the IC50 of Table 2

SMILES	IC50 [1, 9] [µM]	IC50 [1, 10] [µM]	IC50 [2, 11] [µM]	IC50 [2, 12] [µM]	IC50 [3, 9] [µM]	IC50 [3, 10] [µM]	IC50 [4, 13] [µM]	IC50 [4, 14] [µM]	IC50 [5, 9] [µM]	IC50 [5, 10] [µM]	IC50 [6, 15] [µM]	IC50 [6, 16] [µM]	IC50 [7, 17] [µM]	IC50 [7, 18] [µM]	IC50 [8, 19] [µM]	IC50 [8, 20] [µM]	IC50 [1, 21] [µM]	IC50 [1, 22] [µM]	IC50 [2, 23] [µM]	IC50 [2, 24] [µM]	other results
CO[C@@H]1O[C@]23C=C[C@@H]4[C@@]1(CC[C@]1(C)[C@@H]([C@H](C)C[C@@H](O)C=C(C)C)CC[C@@]41C)[C@@H]2CC[C@H](O)C3(C)C [Compound 22]	> 256	> 256	> 256	> 256	> 256	> 256	> 256	> 256	> 256	> 256	> 256	> 256	> 256	> 256	6.17	< 8	–	–	–	–	–
C[C@H](C/C=C/C(C)(C)O)[C@H]1CC[C@@]2(C)[C@@H]3[C@@H](O)C=C4[C@@H](CC[C@H](O)C4(C)C)[C@]3(C=O)CC[C@]12C [Compound 1]	–	–	–	–	–	–	–	–	–	–	–	–	–	–	–	–	> 256	> 256	> 256	> 256	IC50 [3, 25]: 150 µM; IC50 [3, 26]: 64 to 256 µM; IC50 [4, 27]: > 256 µM; IC50 [4, 28]: > 256 µM; IC50 [5, 29]: > 256 µM; IC50 [5, 30]: > 256 µM; IC50 [6, 31]: > 256 µM; IC50 [6, 32]: > 256 µM; IC50 [7, 33]: > 256 µM; IC50 [7, 34]: > 256 µM; IC50 [8, 35]: 36.6 µM; IC50 [8, 36]: 16 to 64 µM
CC(=O)O[C@H]1CC[C@@H]2C(=C[C@H](O)[C@@H]3[C@@]2(C=O)CC[C@]2(C)[C@@H]([C@H](C)C[C@H](C=C(C)C)OC(C)=O)CC[C@@]32C)C1(C)C [Compound 6]	–	–	–	–	–	–	–	–	–	–	–	–	–	–	–	–	23.1	16 to 64	23.5	16 to 64	IC50 [3, 25]: 23.4 µM; IC50 [3, 26]: 16 to 64 µM; IC50 [4, 27]: 14 µM; IC50 [4, 28]: 8 to 16 µM; evaluation of ability to inhibit cell growth activity (IC50) [4, 37]: ◯; IC50 [5, 29]: 16.2 µM; IC50 [5, 30]: 16 to 64 µM; IC50 [6, 31]: 5.43 µM; IC50 [6, 32]: < 8 µM; IC50 [7, 33]: 14.9 µM; IC50 [7, 34]: 8 to 16 µM; evaluation of ability to inhibit cell growth activity (IC50) ([7]; SW480 cells, grade of the IC50 of Table 2): ◯; IC50 [8, 35]: 1.57 µM; IC50 [8, 36]: < 8 µM
COC1O[C@]23C=C[C@@H]4[C@@]1(CC[C@]1(C)[C@@H]([C@H](C)C/C=C/C(C)(C)OC)CC[C@@]41C)[C@@H]2CC[C@H](O)C3(C)C (stereo partly shown) [Compound 17]	> 256	> 256	> 256	> 256	> 256	> 256	9.4	–	> 256	> 256	> 256	> 256	> 256	> 256	12.2	–	–	–	–	–	evaluation of ability to inhibit cell growth activity (IC50) [4, 37]: ◯; evaluation of ability to inhibit cell growth activity (IC50) ([8]; U937 cells, grade of the IC50 of Table 2): ◯
CC(C)=C[C@@H](C[C@@H](C)[C@H]1CC[C@@]2(C)[C@@H]3[C@@H](O)C=C4[C@@H](CC[C@H](O)C4(C)C)[C@]3(C=O)CC[C@]12C)O[C@@H]1O[C@H](CO)[C@@H](O)[C@H](O)[C@H]1O [Compound 12]	124	64 to 256	41.7	16 to 64	49	16 to 64	56.5	16 to 64	70.3	64 to 256	100	64 to 256	98.6	64 to 256	58.6	16 to 64	–	–	–	–	–
